biological target: T1, rGAT1 (Rattus norvegicus, UniProt P23978); assay: [3H]-GABA uptake inhibition assay in HEK293 cells stably expressing rGAT1; type: cell-based; conditions: 100 μM compound
T1 construct: Y prefix of 'YrGAT-1' (own knowledge: yellow fluorescent protein, YFP, fused to rGAT1 in this group's constructs); expressed in transfected cells; host or cells: HEK293

Molecule	effect on [3H]-GABA uptake, in words
N[C@@H](Cc1cc(I)c(Oc2cc(I)c(O)c(I)c2)c(I)c1)C(=O)O [27b, levothyroxine]	reduced uptake, albeit weaker than 27a
O=C(CCN1CCCC1C(=O)O)Nc1ccccc1Oc1ccccc1 (stereo not shown) [compound 18]	some weak activity
bepotastine [compound 25]	inactive
ramipril [compound 26]	inactive

same assay, conditions: 100 μM compound; listed as bepotastine

Molecule	effect on [3H]-GABA uptake, in words
bepotastine [compound 25]	essentially inactive

same assay, conditions: 100 μM of the respective compound; n = 3; relative to saline

Molecule	% uptake (remaining uptake of [3H]-GABA) [%]
bepotastine [compound 25]	103.8
ramipril [compound 26]	107.7

same assay, conditions: HEK293, 100 μM of the respective compound; n = 3; relative to saline

Molecule	remaining activity at 100 µM [%]
N[C@@H](Cc1cc(I)c(Oc2cc(I)c(O)c(I)c2)c(I)c1)C(=O)O [27b, levothyroxine]	54.2
N[C@H](Cc1cc(I)c(Oc2cc(I)c(O)c(I)c2)c(I)c1)C(=O)O [27c, dextrothyroxine]	127
CCN(CCC(=O)O)Cc1nc2c(C)cccc2c(=O)[nH]1 [compound 12]	105
CC(C(=O)Nc1ccc(Br)cc1Br)N1CCCC(CC(=O)O)C1 (stereo not shown) [compound 13]	93.2
O=C(O)CN1CCC(CCc2ccccc2C(F)(F)F)CC1 [compound 14]	99
CC(C(=O)O)N1CCCN(C(=O)c2ccccc2C(F)(F)F)CC1 (stereo not shown) [compound 15]	104
O=C(O)CN1CCCC1Cc1ccccc1Cl (stereo not shown) [compound 16]	95.1
O=C(CCN1CCCC1C(=O)O)Nc1ccccc1Oc1ccccc1 (stereo not shown) [compound 18]	79.3
Fc1cc(Br)cc(CN2CCCC(c3nnn[nH]3)C2)c1 (stereo not shown) [compound 19]	91
Cc1nn(Cc2ccccc2Cl)c(C)c1CN(C)C(C)C(=O)O (stereo not shown) [compound 20]	93.9
O=C(CN1CCC[C@H]1C(=O)O)NC(c1ccc(F)cc1)c1cccs1 (stereo partly shown) [compound 21]	94.7
Cc1cc(S(=O)(=O)N2CCN(CCC(=O)O)CC2)ccc1Br [compound 22]	104
NC(CSCc1cccc2ccccc12)C(=O)O (stereo not shown) [compound 23]	108
CCC(CC)OC1C=C(C(=O)O)CC(N)C1NC(C)=O (stereo not shown) [compound 24]	105

tested on: GABA uptake, rat synaptosome; assay: not given; conditions: Figure 2; rat synaptosome GABA uptake; read-out: literature IC50; cited from earlier work

Molecule	IC50 [µM]
O=C(O)[C@@H]1CCCN(CCCCCC(c2ccccc2)c2ccccc2)C1 [compound 9, OC(=O)[C@@H]1CCCN(C1)CCCCCC(c1ccccc1)c1ccccc1]	1.59

same assay, conditions: literature data set; ref 10.1016/S0968-0896(01)00148-1; cited from earlier work

Molecule	pIC50
O=C(O)[C@@H]1CCCN(CCO/N=C(/Cc2ccccc2)c2ccccc2)C1 [An_2001/6_16, O(\N=C(\Cc1ccccc1)/c1ccccc1)CCN1C[C@@H](CCC1)C(O)=O]	6.87
O=C(O)[C@@H]1CCCN(CCO/N=C(/Cc2ccc(F)cc2)c2ccc(F)cc2)C1 [An_2001/6_17, Fc1ccc(cc1)C\C(=N\OCCN1C[C@@H](CCC1)C(O)=O)\c1ccc(F)cc1]	6.036
O=C(O)[C@@H]1CCCN(CCO/N=C(/Cc2ccccc2F)c2ccccc2F)C1 [An_2001/6_18, Fc1ccccc1C\C(=N\OCCN1C[C@@H](CCC1)C(O)=O)\c1ccccc1F]	7.097
O=C(O)[C@@H]1CCCN(CCON=C(Cc2ccccc2)Cc2ccccc2)C1 [An_2001/6_19, O(\N=C(\Cc1ccccc1)/Cc1ccccc1)CCN1C[C@@H](CCC1)C(O)=O]	5.987
CC/C=C(/C=N/OCCN1CCC[C@@H](C(=O)O)C1)c1ccccc1 [An_2001/6_20, O(\N=C\C(=C\CC)\c1ccccc1)CCN1C[C@@H](CCC1)C(O)=O]	6.125
CC(C)/C=C(/C=N/OCCN1CCC[C@@H](C(=O)O)C1)c1ccccc1 [An_2001/6_21, O(\N=C\C(=C\C(C)C)\c1ccccc1)CCN1C[C@@H](CCC1)C(O)=O]	6.569
CC(C)C/C=C(/C=N/OCCN1CCC[C@@H](C(=O)O)C1)c1ccccc1 [An_2001/6_22, O(\N=C\C(=C\CC(C)C)\c1ccccc1)CCN1C[C@@H](CCC1)C(O)=O]	6.538
O=C(O)[C@@H]1CCCN(CCO/N=C/C2(c3ccccc3)CCCC2)C1 [An_2001/6_23, O(\N=C\C1(CCCC1)c1ccccc1)CCN1C[C@@H](CCC1)C(O)=O]	6.337
O=C(O)[C@@H]1CCCN(CCO/N=C2\CCCC[C@@H]2c2ccccc2)C1 [An_2001/6_24, O(\N=C\1/CCCC[C@@H]/1c1ccccc1)CCN1C[C@@H](CCC1)C(O)=O]	6.489
O=C(O)[C@@H]1CCCN(CCO/N=C2\CCCC=C2c2ccccc2)C1 [An_2001/6_25, O(\N=C\1/CCCC=C/1c1ccccc1)CCN1C[C@@H](CCC1)C(O)=O]	6.456
O=C(O)[C@@H]1CCCN(CCO/N=C2\CCCC\C2=C/c2ccccc2)C1 [An_2001/6_26, O(\N=C\1/CCCC/C/1=C\c1ccccc1)CCN1C[C@@H](CCC1)C(O)=O]	5.013
O=C(O)[C@@H]1CCCN(CCO/N=C2\c3ccccc3CC[C@@H]2c2ccccc2)C1 [An_2001/6_27, O(\N=C\1/c2c(CC[C@@H]/1c1ccccc1)cccc2)CCN1C[C@@H](CCC1)C(O)=O]	6.058
O=C(O)[C@@H]1CCCN(CCO/N=C2\C[C@H](c3ccccc3)c3ccccc32)C1 [An_2001/6_28, O(\N=C\1/C[C@@H](c2c/1cccc2)c1ccccc1)CCN1C[C@@H](CCC1)C(O)=O]	5.852
O=C(O)[C@@H]1CCCN(CCOc2ccccc2)C1 [An_2001/6_32, O(CCN1C[C@@H](CCC1)C(O)=O)c1ccccc1]	5.046
O=C(O)[C@@H]1CCCN(CCOc2ccccc2-c2ccccc2)C1 [An_2001/6_33, O(CCN1C[C@@H](CCC1)C(O)=O)c1ccccc1-c1ccccc1]	5.235
O=C(O)[C@@H]1CCCN(CCOc2ccccc2Cc2ccccc2)C1 [An_2001/6_34, O(CCN1C[C@@H](CCC1)C(O)=O)c1ccccc1Cc1ccccc1]	5.158
O=C(O)[C@@H]1CCCN(CCOCc2ccccc2-c2ccccc2)C1 [An_2001/6_35, O(Cc1ccccc1-c1ccccc1)CCN1C[C@@H](CCC1)C(O)=O]	6.476
O=C(O)[C@@H]1CCCN(CCOCc2ccc3ccccc3c2-c2ccccc2)C1 [An_2001/6_36, O(Cc1ccc2c(cccc2)c1-c1ccccc1)CCN1C[C@@H](CCC1)C(O)=O]	5.098
O=C(O)[C@@H]1CCCN(CCOCc2ccccc2Cc2ccccc2)C1 [An_2001/6_37, O(Cc1ccccc1Cc1ccccc1)CCN1C[C@@H](CCC1)C(O)=O]	6.495
O=C(O)[C@@H]1CCCN(CCOCc2cccc(Cc3ccccc3)c2)C1 [An_2001/6_38, O(Cc1cc(ccc1)Cc1ccccc1)CCN1C[C@@H](CCC1)C(O)=O]	5.523
O=C(O)[C@@H]1CCCN(CCOCCc2ccccc2-c2ccccc2)C1 [An_2001/6_39, O(CCc1ccccc1-c1ccccc1)CCN1C[C@@H](CCC1)C(O)=O]	6.959
O=C(O)[C@@H]1CCCN(CCOCCc2ccccc2Cc2ccccc2)C1 [An_2001/6_40, O(CCc1ccccc1Cc1ccccc1)CCN1C[C@@H](CCC1)C(O)=O]	7
O=C(O)[C@@H]1CCCN(CCOC/C(=C/c2ccccc2)c2ccccc2)C1 [An_2001/6_41, O(CCN1C[C@@H](CCC1)C(O)=O)C\C(=C\c1ccccc1)\c1ccccc1]	6.297
O=C(O)[C@@H]1CCCN(CCOC/C(=C\c2ccccc2)c2ccccc2)C1 [An_2001/6_42, O(CCN1C[C@@H](CCC1)C(O)=O)C\C(=C/c1ccccc1)\c1ccccc1]	5.523
O=C(O)[C@@H]1CCCN(CCOCCc2ccccc2)C1 [An_2001/6_43, O(CCc1ccccc1)CCN1C[C@@H](CCC1)C(O)=O]	5.347
CC(C)CN(CCOCCN1CCC[C@@H](C(=O)O)C1)c1ccccc1 [An_2001/6_44, O(CCN1C[C@@H](CCC1)C(O)=O)CCN(CC(C)C)c1ccccc1]	6.553
CC(C)CN(CCOCCN1CCC[C@@H](C(=O)O)C1)c1ccc(F)cc1Cl [An_2001/6_45, Clc1cc(F)ccc1N(CC(C)C)CCOCCN1C[C@@H](CCC1)C(O)=O]	6.827

same assay, conditions: literature data set; ref 10.1021/jm00064a005; cited from earlier work

Molecule	pIC50
O=C(O)C1=CCCN(CCOC(c2ccc(C(F)(F)F)cc2)c2ccc(C(F)(F)F)cc2)C1 [Cl-966, FC(F)(F)c1ccc(cc1)C(OCCN1CC(=CCC1)C(O)=O)c1ccc(cc1)C(F)(F)F]	6.357
O=C(O)C1=CCCN(CCC=C(c2ccccc2)c2ccccc2)C1 [SK&F-100330-A, OC(=O)C=1CN(CCC=1)CC\C=C(\c1ccccc1)/c1ccccc1]	6.699
Cc1ccsc1C(=CCCN1CCC[C@@H](C(=O)O)C1)c1sccc1C [compound 5, tiagabine]	7.174
O=C(O)[C@@H]1CCCN(CCC=C2c3ccccc3-c3ccccc32)C1 [compound 7, OC(=O)[C@@H]1CCCN(C1)CC\C=C/1\c2c(-c3c\1cccc3)cccc2]	5.717

same assay, conditions: literature data set; ref 10.1021/jm980492e; cited from earlier work

Molecule	pIC50
O=C(O)[C@@H]1CCCN(CCOCCC(c2ccccc2)c2ccccc2)C1 [compound 8, O(CCC(c1ccccc1)c1ccccc1)CCN1C[C@@H](CCC1)C(O)=O]	7.26
O=C(O)[C@@H]1CCCN(CCCCCC(c2ccccc2)c2ccccc2)C1 [compound 9, OC(=O)[C@@H]1CCCN(C1)CCCCCC(c1ccccc1)c1ccccc1]	5.799

same assay, conditions: literature data set; ref 10.1021/jm981027k; cited from earlier work

Molecule	pIC50
O=C(O)C1=CCCN(CCON=C(c2ccccc2)c2ccccc2)C1 [NO-711, O(\N=C(\c1ccccc1)/c1ccccc1)CCN1CC(=CCC1)C(O)=O]	7.328
Cc1ccsc1C(=COCCN1CCC[C@@H](C(=O)O)C1)c1sccc1C [compound 6, s1ccc(C)c1\C(=C\OCCN1C[C@@H](CCC1)C(O)=O)\c1sccc1C]	7.854
O=C(O)[C@@H]1CCCN(CCO/N=C(/c2ccccc2)c2ccccn2)C1 [compound 11, O(\N=C(\c1ccccc1)/c1ncccc1)CCN1C[C@@H](CCC1)C(O)=O]	5.684

tested on: not given; assay: not given; parameters: method as in PMID 10903390; conditions: cited from earlier work

Molecule	blood-brain barrier penetration
O=C(O)C1CCCNC1 (stereo not shown) [compound 2, nipecotic acid]	unable to penetrate the blood–brain barrier
O=C(O)C1=CCCNC1 [compound 3, guvacine]	unable to penetrate the blood–brain barrier

tested on: other neurotransmitter reuptake systems (dopamine, serotonin, choline, aspartate); assay: not given; parameters: method as in PMID 3509068; conditions: cited from earlier work

Molecule	activity on other neurotransmitter reuptake systems
liothyronine [27a]	without major activity

Source: article PMC4360375 (Journal of Medicinal Chemistry, 2015)
